Laboratory results taken from US20190209682A1, “ISOFORM-SPECIFIC, CONTEXT-PERMISSIVE TGFB1 INHIBITORS AND USE THEREOF” (Scholar Rock, Inc., priority 2017, published 2019).

Assays:
[1] = Rat toxicity study, Phase II; type: in vivo
[2] = test system: tonic SMAD2/3 signaling in BAL cells; test: Pharmacodynamics, tonic phospho-SMAD2/3 in BAL cells of healthy rats; type: in vivo, rat; conditions: single oral gavage dose 100 mg/kg, 2 hours post-dosing
Protocol: To confirm isoform-selective inhibition of TGFβ1 in vivo, a pharmacodynamics study was conducted in which effects of Ab3 on tonic phospho-SMAD2/3 levels were assessed in bronchoalveolar lavage (BAL) cells collected from healthy rats. It is reported in the literature that under homeostatic conditions, BAL cells predominantly express TGFβ2/3, but little TGFβ1, while the latter becomes preferentially elevated in pathologic conditions.
Healthy Sprague Dawley rats (approximately 6-8 weeks old, weighing 200-250 g at the beginning of the study; Charles River) were randomized by bodyweight into study groups and dosed as described below.
Animals received test antibodies (huNEG-mIgG1, […], or Ab3) on Days 1, 8, and 15 by intraperitoneal injection. Animals are euthanized on Day 16 for BAL and serum collections. One group of control animals was dosed with a single oral gavage (PO) dose of LY2109761 (small molecule ALK5 inhibitor) at 100 mg/kg and was euthanized at 2 hours (+/−20 min) post-dosing for BAL collections.
To collect BAL samples, the whole lung was lavaged three times with 5.0 mL of ice-cold Dulbecco's phosphate buffered saline. […]
Phospho-SMAD2/3 assays were performed by ELISA (Cell Signaling Technologies) according to the manufacturer's instructions. Results were assessed by phosphorylated-to-total SMAD2/3 ratios.

[3] = Rat toxicity study, Phase I; conditions: for Aortic root: Hemorrhage, Minimal / Aortic root: Infiltrate, mixed cell, Minimal / Atrium: Hemorrhage, Minimal / Atrium: Hyperplasia, endothelium, Minimal / Atrium: Infiltrate, mixed cell, Minimal / Atrium: Infiltrate, mixed cell, Slight / Coronary artery: Necrosis with inflammation, Slight / Heart valves: Valvulopathy, Minimal / Heart valves: Valvulopathy, Moderate / Heart valves: Valvulopathy, Slight / Myocardium: Degeneration/necrosis, Minimal / Myocardium: Degeneration/necrosis, Slight / Myocardium: Hemorrhage, Slight / Myocardium: Infiltrate, mixed cell, Slight: incidence
Protocol: Animal body weight was determined at days 1, 3, and 7 of the dosing phase. Animals were sacrificed at day 8 and necropsies performed.

[4] = 200 mg/kg oral gavage once daily for five days

With `c1ccc(-c2nn3c(c2-c2ccnc4cc(OCCN5CCOCC5)ccc24)CCC3)nc1` [LY2109761] the Heart weights ([1]; 200 mg/kg) was “increased heart weights”, the Liver weights ([1]; 200 mg/kg) was “Increased liver weights” and the Thymus weights ([1]; 200 mg/kg) was “decreased thymus weights”. The Thyroid weights ([1]; 200 mg/kg) was “increased thyroid weights”, the Uterus weights ([1]; 200 mg/kg) was “decreased uterus weights” and the Heart findings [1, 4] was “test article-related heart findings occurred”. The “Microscopic findings in bones, liver, pancreas (artery), thymus, thyroid, female reproductive tissues, mammary gland” value [1, 4] was “microscopic findings occurred”, the “Tonic SMAD2/3 signaling (phosphorylated-to-total SMAD2/3 ratio)” value [2] was “significantly suppressed” and the “Animals found dead at day 7” value ([3]; 200 mg/kg oral gavage once daily, n=5) was “Two”. For the same compound, the “Aortic root: Hemorrhage, Minimal” value ([3]; 200 mg/kg/day, n=5) was 1, the “Aortic root: Infiltrate, mixed cell, Minimal” value ([3]; 200 mg/kg/day, n=5) was 1 and the “Atrium: Hemorrhage, Minimal” value ([3]; 200 mg/kg/day, n=5) was 1. For the same compound, the “Atrium: Hyperplasia, endothelium, Minimal” value ([3]; 200 mg/kg/day, n=5) was 1, the “Atrium: Infiltrate, mixed cell, Minimal” value ([3]; 200 mg/kg/day, n=5) was 2 and the “Atrium: Infiltrate, mixed cell, Slight” value ([3]; 200 mg/kg/day, n=5) was 0. For the same compound, the “Coronary artery: Necrosis with inflammation, Slight” value ([3]; 200 mg/kg/day, n=5) was 0, the “Heart valves: Valvulopathy, Minimal” value ([3]; 200 mg/kg/day, n=5) was 1 and the “Heart valves: Valvulopathy, Moderate” value ([3]; 200 mg/kg/day, n=5) was 1. For the same compound, the “Heart valves: Valvulopathy, Slight” value ([3]; 200 mg/kg/day, n=5) was 3, the “Myocardium: Degeneration/necrosis, Minimal” value ([3]; 200 mg/kg/day, n=5) was 0 and the “Myocardium: Degeneration/necrosis, Slight” value ([3]; 200 mg/kg/day, n=5) was 1. The “Myocardium: Hemorrhage, Slight” value ([3]; 200 mg/kg/day, n=5) was 1, the “Myocardium: Infiltrate, mixed cell, Slight” value ([3]; 200 mg/kg/day, n=5) was 0 and the Mortality ([3]; 300 mg/kg oral gavage once daily, days 3, 6, or 7, all animals, n=5) was “sacrificed in a moribund condition or found dead”. For the same compound, the “Aortic root: Hemorrhage, Minimal” value ([3]; 300 mg/kg/day, n=5) was 0, the “Aortic root: Infiltrate, mixed cell, Minimal” value ([3]; 300 mg/kg/day, n=5) was 0 and the “Atrium: Hemorrhage, Minimal” value ([3]; 300 mg/kg/day, n=5) was 2. The “Atrium: Hyperplasia, endothelium, Minimal” value ([3]; 300 mg/kg/day, n=5) was 3, the “Atrium: Infiltrate, mixed cell, Minimal” value ([3]; 300 mg/kg/day, n=5) was 3 and the “Atrium: Infiltrate, mixed cell, Slight” value ([3]; 300 mg/kg/day, n=5) was 1. For the same compound, the “Coronary artery: Necrosis with inflammation, Slight” value ([3]; 300 mg/kg/day, n=5) was 1, the “Heart valves: Valvulopathy, Minimal” value ([3]; 300 mg/kg/day, n=5) was 2 and the “Heart valves: Valvulopathy, Moderate” value ([3]; 300 mg/kg/day, n=5) was 0. For the same compound, the “Heart valves: Valvulopathy, Slight” value ([3]; 300 mg/kg/day, n=5) was 3, the “Myocardium: Degeneration/necrosis, Minimal” value ([3]; 300 mg/kg/day, n=5) was 1 and the “Myocardium: Degeneration/necrosis, Slight” value ([3]; 300 mg/kg/day, n=5) was 1. The “Myocardium: Hemorrhage, Slight” value ([3]; 300 mg/kg/day, n=5) was 0, the “Myocardium: Infiltrate, mixed cell, Slight” value ([3]; 300 mg/kg/day, n=5) was 1 and the “Animals with clear fluid in the thoracic cavity and enlarged thymus (edema)” value ([3]; 300 mg/kg, found dead on Day 3) was “one”. The “Animals with abnormally-shaped sternum” value ([3]; each treatment group, 200 mg/kg or 300 mg/kg) was “four”, the Bone findings ([3]; sternum, femur and tibia, higher incidence and/or severity with LY2109761) was “macroscopic abnormally shaped sternum and microscopic increased thickness of the hypertrophic zone” and the “Heart valve findings, microscopic” value ([3]; ≥200 mg/kg) was “valvulopathy”. The Heart weights ([3]; ≥200 mg/kg) was “Increased heart weights”.
